In patent US10226477B2, “Composition for preventing, improving or treating postmenopausal osteoporosis comprising scopolin” (DONG WOO DANG CO., LTD, priority 2016, dated 2019):
Entries after “also recorded” stand apart in the source; their conditions may differ.

Assays:
[1] = test system: ddY female ovariectomized (OVX)-mouse; assay: Bone mineral density (PIXImus) and femoral micro-CT in ovariectomized menopausal mouse model; assay type: in vivo; conditions: oral, 12 weeks, scopolin 20 and 40 mg/kg/day, SrCl2 20 mg/kg/day; for decrease in the bone mineral density caused by the menopause: p<0.05 vs. OVX
Method: (§1) To evaluate in vivo efficacy of scopolin, a 10-week-old ddY female ovariectomized (OVX)-mouse was used a menopausal animal model (ovariectomy was performed on the 8-week-old mouse, and the mouse was additionally raised for 2 weeks). Regarding control groups, a Shame mouse that was subjected to laparotomy, but was not subjected to ovariectomy, (normal control group), and an OVX mouse to which physiological saline was added (negative control group) were used, and in addition, a strontium chloride (SrCl2) mouse in which 20 mg/kg/day of SrCl2, which is a compound having an effect in enhancing bone mineral density, was administered by oral injection to an OVX mouse was used as a positive control group in the test for bone mineral density improvement efficacy. Here, an experimental group was prepared by administering scopolin at a dose of 20 mg/kg/day and 40 mg/kg/day by oral injection. The 10-week-old sham-operated mouse and the ddY OVX-mouse were purchased at Central Lab. Animal Inc., and then, were moved to a clean animal breeding room after spending 1 week of purification period in the laboratory animal quarantine room. These mice were individually weighed to be classified into experimental groups without a statistically significant difference in weight. Scopolin used in the experiment was dissolved in 1% DMSO aqueous solution to be prepared as a test solution. In order to bring these mice in the laboratory animal center, a radiation irradiation company, SOYAGREENTEC Inc., was commissioned for sterilization operations using gamma irradiation.
At the beginning of the animal experiment, a PIXImus bone densitometer was used to measure initial bone mineral density (BMD) of the mice. The mice were anesthetized by injecting 50 μl of a mixed anesthetic of zoletil and rompun (a mixture of zoletil and rompun at a ratio of 1:2 was diluted with physiological saline at a ratio of 2:3), and then, were fixed to a bone mineral density measuring frame to measure bone mineral density. After 6 weeks and 12 weeks of the injection of scopolin to the mice, the bone mineral density of the mice was measured by using the PIXImus bone densitometer. After the completion of the experiment during 12 weeks, blood sampling and removal of femoral bone were performed, and micro-CT was taken thereon. In the micro-CT images, bone volume ratios (BV ratios, %), trabecular thickness (Tb.Th), trabecular number (Tb.N), and trabecular spacing (Tb.Sp) were numeralized and analyzed.

[2] = test system: ddY female ovariectomized (OVX)-mouse; assay: Serum OPG and RANKL levels by ELISA in ovariectomized menopausal mouse model; assay type: in vivo; conditions: oral, 12 weeks, scopolin 20 and 40 mg/kg/day, SrCl2 20 mg/kg/day; for decrease in the serum level of OPG (bone formation marker) / increase in the serum level of RANKL (bone resorption marker): p<0.05 vs. OVX
Method: as §1
Next, the changes of blood metabolism markers in the blood were examined. After 12 weeks of the experiment performed on the postmenopausal mouse model, the blood sampling was performed thereon, and serum samples were collected therefrom. The serum protein levels of osteoprotegerin (OPG), which is a bone formation marker, and receptor activator of nuclear factor-kappa B ligand (RANKL), which is a bone resorption marker, were analyzed by ELISA. […] However, in the experimental groups to which scopolin was administered at a dose of 20 mg/kg/day and 40 mg/kg/day for 12 weeks, it was confirmed that the decrease in the level of OPG, which is the bone formation marker in the blood, the increase in the level of RANKL, which is the bone resorption marker, and the decrease in the OPG/RANKL ratios were inhibited (see FIGS. 9A, 9B, and 9C). Such results were similar with those obtained by the SrCl2 mouse which is the positive control group. In addition, in the statistical analysis, the significance of the efficacy of scopolin was also confirmed (*: p<0.05 vs. OVX negative control group).

MC3T3-E1 cells [3] = assay: Cytotoxicity of scopolin by cell proliferation analysis (EZ-Cytox, water-soluble tetrazolium salt); assay type: cell-based; conditions: 1 μg/ml, 5 μg/ml and 10 μg/ml, cultured 2 days, vs. physiological saline control
Method: Cytotoxicity of scopolin was evaluated by cell proliferation analysis using an EZ-Cytox Enhanced Cell Viability Assay Kit using a water-soluble tetrazolium salt. In detail, MC3T3-E1 cells (3×10^3 cells/well), which are osteoblasts, were cultured in an alpha-minimum essential medium (α-MEM) supplemented with 10% bovine fetus serum, 1 mM sodium pyruvate, 100 unit/L penicillin, and 100 mg/L streptomycin at a temperature of 37° C. under conditions provided with 5% CO2, and then, the cells were treated with scopolin at three different concentrations (1 μg/ml, 5 μg/ml, and 10 μg/ml) and cultured for 2 days. Next, the tetrazolium salt was applied to each of the cultured cells and a sample, followed by being cultured at a temperature of 37° C. for 2 hours, and then, absorbance thereof was measured at a wavelength of 450 nm.

MC3T3-E1 cells [4] = assay: Osteoblast differentiation: alkaline phosphatase (ALP) activity; assay type: cell-based
Method: The efficacy of scopolin on the differentiation of osteoblasts was evaluated by using the MC3T3-E1 cells. Ascorbic acid (50 μg/ml) and β-glycerophosphate (10 mM), which are osteoblast inducers, were added to the MC3T3-E1 cells, to thereby induce the differentiation for 3 days. Then, the resulting cells were treated with scopolin. Scopolin was dissolved in 1% dimethyl sulfoxide (DMSO) aqueous solution, and then, was applied to the MC3T3-E1 cells at concentrations of 1 μg/ml (Sco1), 5 μg/ml (Sco5), and 10 μg/ml (Sco10). The resulting cells were cultured for additional 48 hours. As a control group, cells were cultured in the same amount of 1% DMSO aqueous solution in which scopolin was not treated. To determine the efficacy of scopolin on the differentiation of osteoblasts, the activity of alkaline phosphatase (ALP) was measured. In detail, the cells that were washed using physiological saline and dissolved using a lytic agent was treated with p-nitrophenyl phosphate, which is a substrate of ALP, and then, cultured at a temperature of 37° C. for 1 hour. Subsequently, 0.5N NaOH, which is a reaction terminating solution, was added the cultured cells, and then, absorbance thereof was measured at a wavelength of 405 nm.

MC3T3-E1 cells [5] = assay: Osteoblast differentiation: ALP staining; assay type: cell-based; conditions: 5 μg/ml
MC3T3-E1 cells [6] = assay: Mineralization of osteoblasts by Alizarin Red S staining; assay type: cell-based; conditions: 5 μg/ml
Method: The mineralization of osteoblasts was analyzed by an Alizarlin red S staining method after experimental groups and a control group were each treated with 5 μg/ml of scopolin and cultured. […] That is, it was confirmed that scopolin was effective in stimulating the differentiation of osteoblasts.

| SMILES | increase in trabecular spacing (Tb.Sp) [1] | low density of the bone structure (micro-CT images) [1] | reduction in BV ratios (bone volume ratio) [1] | reduction in trabecular number (Tb.N) [1] | reduction in trabecular thickness (Tb.Th) [1] | decrease in the bone mineral density caused by the menopause [1] | decrease in the OPG/RANKL ratios [2] | decrease in the serum level of OPG (bone formation marker) [2] | increase in the serum level of RANKL (bone resorption marker) [2] | effect on the proliferation of the MC3T3-E1 cells (cytotoxicity) (MC3T3-E1 cells [3]) | differentiation of osteoblasts (ALP activity) (MC3T3-E1 cells [4]; 5 μg/ml or 10 μg/ml, 48 hours after 3 days induction, p<0.05 vs. negative control) | stimulating osteoblast differentiation (overall conclusion) (MC3T3-E1 cells [4]; MC3T3-E1 cells, 1-10 μg/ml) | ALP staining (MC3T3-E1 cells [5]) | mineralization (Alizarin Red S staining) (MC3T3-E1 cells [6]) |
| --- | --- | --- | --- | --- | --- | --- | --- | --- | --- | --- | --- | --- | --- | --- |
| [Cl-].[Cl-].[Sr+2] [SrCl2, strontium chloride, reference compound] | similar | similar | similar | similar | similar | similar | similar | similar | similar |  |  |  |  |  |
| COc1cc2ccc(=O)oc2cc1O[C@@H]1O[C@H](CO)[C@@H](O)[C@H](O)[C@H]1O [scopolin] | inhibited | significantly inhibits; also recorded: inhibited | inhibited | inhibited | inhibited | significantly inhibits; also recorded: inhibited | inhibited | significantly inhibits; also recorded: inhibited | significantly inhibits; also recorded: inhibited | not toxic; also recorded: no adverse effect | statistically significantly increased | significant effect; also recorded: effective | increased | increased |
